A short description of data set [1]: Compound cytotoxicity on uninfected MRC5 monolayers, microscopic examination. Format: cell-based, human. The following applies: human, uninfected MRC5 cell monolayers (human embryonic lung cells); uninfected MRC5 cells, 5 days, estimated from microscopic examination; read-out: MRC5 tox CC50. The procedure:
(§1) HCMV strain AD169 was grown on monolayers of human embryonic lung cells (MRC5 cells) in 96 well plates. After infection of the cells at a ratio of approximately 0.01 infectious virus particles per cell, the compounds to be tested were added to selected wells at six different concentrations, each in triplicate. The same concentrations of compound were also applied to wells containing monolayers of uninfected cells in order to assess compound cytotoxicity. The plates were incubated for 5 days, and the minimum cytotoxic dose was estimated from microscopic examination. The IC50 for antiviral effect was estimated from measurements of HCMV DNA in each well by blotting and quantitive specific DNA hybridization, similar to the method of Gadler. (Antimicrob. Agents Chemother. 1983, 24, 370-374).

The subject of data set [2] is HCMV strain AD169. The data set can be described thus: Human Cytomegalovirus (HCMV) assay, HCMV DNA hybridization. The class given is cell-based. To be noted: HCMV strain AD169 on MRC5 cells, 5 days, HCMV DNA by blotting and hybridization. The procedure:
as §1

Data set [3] has as its system MRC5 cells. The data set can be described thus: Compound cytotoxicity on uninfected MRC5 monolayers, microscopic examination. The class given is cell-based, human. Here is the method:
as §1

Structures are written as SMILES.

Broadly, the CC50 is the concentration giving 50% cytotoxicity. As usually defined, the melting point is the temperature, or range, at which the solid turns liquid. A word on the IC50: it is the midpoint of a concentration-inhibition curve. Read a high IC50 as a need for much substance. Consider `C=CCNc1nc2cc(Cl)c(Cl)cc2n1[C@H]1O[C@@H](CO)[C@H](O)[C@@H]1O` [Example 4, 2-(Allylamino)-5,6-dichloro-1-(beta-L-ribofuranosyl)-1H-benzimidazole], for which the melting point is 220 °C (dec.). In data set [1], the 50% cytotoxic concentration (CC50) at 5 days was 100 µM. The IC50 in data set [2] (Human betaherpesvirus 5, 120 h) lay within 0.91 to 2.5 µM.
Consider `OC[C@@H]1O[C@H](n2c(NCCN3CCCC3)nc3cc(Cl)c(Cl)cc32)[C@@H](O)[C@H]1O` [Example 22, 5,6-Dichloro-2-((2-(1-pyrrolidinyl)ethyl)amino)-1-(beta-L-ribofuranosyl)-1H-benzimidazole], for which the melting point was 123 to 124 °C.
On to `OC[C@@H]1O[C@H](n2c(NCC3CC3)nc3cc(Cl)c(Cl)cc32)[C@@H](O)[C@H]1O` [Example 23, 2-((Cyclopropylmethyl)amino)-5,6-dichloro-1-(beta-L-ribofuranosyl)-1H-benzimidazole], for which the melting point is 229 to 230 °C.
`OC[C@@H]1O[C@H](n2c(N3CCC3)nc3cc(Cl)c(Cl)cc32)[C@@H](O)[C@H]1O` [Example 8, 2-Azetidino-5,6-dichloro-1-(beta-L-ribofuranosyl)-1H-benzimidazole] displayed a CC50 in data set [3] of 100 µM. For the same compound, it took 41 µM to reach half-maximal inhibition in data set [2] (IC50).
Take `CCNc1nc2cc(Cl)c(Cl)cc2n1[C@H]1O[C@@H](CO)[C@H](O)[C@@H]1O` [Example 34, 5,6-Dichloro-2-(ethylamino)-1-(beta-L-ribofuranosyl)-1H-benzimidazole]: the melting point fell in the range of 155 to 157 °C. In addition, the 50% cytotoxic concentration (CC50) at 5 days in data set [1] is 100 µM. Also, in data set [2] (Human betaherpesvirus 5, 120 h), the IC50 fell in the range of 0.75 to 0.85 µM.
`OCCNc1nc2cc(Cl)c(Cl)cc2n1[C@H]1O[C@@H](CO)[C@H](O)[C@@H]1O` [Example 12, 2-((5,6-Dichloro-1-(beta-L-ribofuranosyl)-1H-benzimidazol-2-yl)amino)ethanol]: the CC50 at 5 days in data set [1] is 100 µM. The IC50 in data set [2] (Human betaherpesvirus 5, 120 h) lay within 3.5 to 5.8 µM.
For `CC(C)Nc1nc2cc(Cl)c(Cl)cc2n1[C@H]1O[C@@H](CO)[C@H](O)[C@@H]1O` [Example 5, 5,6-Dichloro-2-(isopropylamino)-1-(beta-L-ribofuranosyl)-1H-benzimidazole], in that order: 100 µM and 0.03 to 0.05 µM.
`CC(C)CNc1nc2cc(Cl)c(Cl)cc2n1[C@H]1O[C@@H](CO)[C@H](O)[C@@H]1O` [Example 11, 5,6-Dichloro-2-(isobutylamino)-1-(beta-L-ribofuranosyl)-1H-benzimidazole] showed a melting point of 136 °C.
The same measure, in the same setting: the figure for `OC[C@@H]1O[C@H](n2c(NCc3ccccc3)nc3cc(Cl)c(Cl)cc32)[C@@H](O)[C@H]1O` [Example 7, 2-(Benzylamino)-5,6-dichloro-1-(beta-L-ribofuranosyl)-1H-benzimidazole] is 123 °C; for `OC[C@@H]1O[C@@H](n2c(NC3CC3)nc3cc(Cl)c(Cl)cc32)[C@@H](O)[C@H]1O` [Example 35, 2-Cyclopropylamino-5,6-dichloro-1-(alpha-L-ribofuranosyl)-1H-benzimidazole] it is 140 to 141 °C; for `OC[C@@H]1O[C@H](n2c(NC3CCC3)nc3cc(Cl)c(Cl)cc32)[C@@H](O)[C@H]1O` [Example 20, 2-(Cyclobutylamino)-5,6-dichloro-1-(beta-L-ribofuranosyl)-1H-benzimidazole] it is 220 to 221 °C.
On to `OC[C@@H]1O[C@H](n2c(Br)nc3cc(Cl)c(Cl)cc32)[C@@H](O)[C@H]1O` [Example 2, 2-Bromo-5,6-dichloro-1-(beta-L-ribofuranosyl)-1H-benzimidazole], for which the melting point stood at 169 °C.
Still for that read-out and setting: the figure for `CC(C)(C)Nc1nc2cc(Cl)c(Cl)cc2[nH]1` [Example 26, 2-(tert-Butylamino)-5,6-dichloro-1H-benzimidazole] is 219 to 221 °C.
In the case of `C#CCNc1nc2cc(Cl)c(Cl)cc2n1[C@H]1O[C@@H](CO)[C@H](O)[C@@H]1O` [Example 9, 5,6-Dichloro-2-(propargylamino)-1-(beta-L-ribofuranosyl)-1H-benzimidazole], the melting point lay within 182 to 184 °C.
Take `CC(C)(C)Nc1nc2cc(Cl)c(Cl)cc2n1[C@H]1O[C@@H](CO)[C@H](O)[C@@H]1O` [Example 24, 2-(tert-Butylamino)-5,6-dichloro-1-(beta-L-ribofuranosyl)-1H-benzimidazole]: the melting point lay in the range of 118 to 120 °C.
With `CCCNc1nc2cc(Cl)c(Cl)cc2n1[C@H]1O[C@@H](CO)[C@H](O)[C@@H]1O` [Example 10, 5,6-Dichloro-2-(n-propylamino)-1-(beta-L-ribofuranosyl)-1H-benzimidazole], the melting point fell in the range of 231 to 233 °C. Also, in data set [1], the CC50 at 5 days is 100 µM. Also, the IC50 in data set [2] (Human betaherpesvirus 5, 120 h) fell in the range of 1.1 to 1.3 µM.
`Nc1nc2cc(Cl)c(Cl)cc2n1[C@H]1O[C@@H](CO)[C@H](O)[C@@H]1O` [Example 27, 2-Amino-5,6-dichloro-1-(beta-L-ribofuranosyl)-1H-benzimidazole] yielded a melting point of 110 to 112 °C.
With `OC[C@@H]1O[C@H](n2c(NC3CCCC3)nc3cc(Cl)c(Cl)cc32)[C@@H](O)[C@H]1O` [Example 6, 2-(Cyclopentylamino)-5,6-dichloro-1-(beta-L-ribofuranosyl)-1H-benzimidazole], the melting point worked out at 140 °C.
On the same count and under the same terms, the figure for `CCC(C)Nc1nc2cc(Cl)c(Cl)cc2n1[C@H]1O[C@@H](CO)[C@H](O)[C@@H]1O` (stereo partly drawn) [Example 19, 2-(sec-Butylamino)-5,6-dichloro-1-(beta-L-ribofuranosyl)-1H-benzimidazole] is 121 to 122 °C; for `CNc1nc2cc(Cl)c(Cl)cc2n1[C@H]1O[C@@H](CO)[C@H](O)[C@@H]1O` [Example 33, 5,6-Dichloro-2-(methylamino)-1-(beta-L-ribofuranosyl)-1H-benzimidazole] it is 238 to 240 °C.
Regarding `CC(=O)OC[C@@H]1O[C@H](n2c(Br)nc3cc(Cl)c(Cl)cc32)[C@@H](OC(C)=O)[C@H]1OC(C)=O` [Example 1, 2-Bromo-5,6-dichloro-1-(2,3,5-tri-O-acetyl-beta-L-ribofuranosyl)-1H-benzimidazole], the melting point was less than 65 °C.
As to `CCCCNc1nc2cc(Cl)c(Cl)cc2n1[C@H]1O[C@@H](CO)[C@H](O)[C@@H]1O` [Example 18, 2-(n-Butylamino)-5,6-dichloro-1-(beta-L-ribofuranosyl)-1H-benzimidazole], the melting point fell in the range of 220 to 222 °C.

The values are drawn from US20010003744A1, “Therapeutic compounds” (priority 1994, published 2001).
